Three compounds from patent US10570149B2, “Tricyclic heterocylic derivatives” (MERCK PATENT GMBH, priority 2016, dated 2020) can be followed below.

For the test, the system named is phosphorylation of H2AX (gH2AX) in U2OS-TopBP1-ER cells. As to the kind of experiment: gH2AX-TopBP1ER cellular assay. In kind it is cell-based. The following applies: Table 1, class symbols, 4-OHT. The source says:
gH2AX-TopBP1ER Cellular Assay
ATR activity is restricted to replicating cells and many of its targets can also be phosphorylated by other PIKKs. These restrictions have limited the development of selective cellular assays in the past. In order to overcome these limitations, a previously developed genetically engineered cellular system in which ATR, and only ATR, can be activated at will in every cell (Toledo et al Genes Dev. 22, 297-302 2008) was used. In this system, the addition of 4-hydroxytamoxifen (4-OHT), promotes the nuclear translocation of a fragment of TopBP1 which then activates ATR. The phosphorylation of H2AX that follows 4-OHT addition in these cells is a direct and selective readout of ATR activity, which is not influenced by the rest of PIKKs. This property has been used in a screen for compounds with ATR inhibitory capacity. U2OS-TopBP1-ER cells stably express the TopBP1 activation domain (aa 978-1286) fused to a mutated estrogen receptor ligand binding domain. Nuclear accumulation of the TopBP1-ER-LBD fusion protein is induced by the synthetic ER antagonist 4-hydroxytamoxifen (4-OHT) (and not by natural ER agonists) mediating specific ATR activation that is independent of DNA damage or cell cycle. In the assay phosphorylation of the ATR substrate H2AX (“gH2AX”) at Serin 139 is detected using an immune-cytochemical procedure and high content imaging. For the assay U2OS-TopBP1-ER cells are plated in culture medium (DMEM high Glucose (no phenol red), 2 mM Glutamax, 1 mM Pyruvate, 10% FCS into Greiner 384 well plates, black, μclear #781090 (4000 cells/well/30 μl) and incubated for at least 20 hours at 37° C., 10% CO2 and 90% rH. Diluted test compounds (1 nM-30 μM final) and 4-OHT (1 μM final) are added simultaneously and cells are incubated for 2 h at 37° C. After fixation with 4% formaldehyde and permeabilisation with 0.2% Triton X-100 a complete immunocytochemical procedure is performed using a specific anti-gH2AX-antibody (Millipore 05-636, clone JBW301) and fluorescently labelled secondary antibody (Alexa Fluor® 488 goat anti-mouse F(ab′)2 fragment, Invitrogen A11017) and parallel nuclear staining for cell counting. The nuclear localised gH2AX signal is detected on an ImageXpress Ultra confocal high content reader and reported as % positive cells (nuclei).
As usually defined, the IC50 is the concentration needed to halve the response being measured. High values mean weaker potency, low ones greater potency. In the case of `CNc1cnc2[nH]ccc2c1-c1nc2c(c(C(C)(C)S(C)(=O)=O)n1)OC[C@@H]1COC[C@@H](C)N21` [A1, {4-[(S)-1-(1-Methanesulfonyl-1-methyl-ethyl)-5-(R)-methyl-5,6,8a,9-tetrahydro-8H-7,10-dioxa-2,4,4b-triaza-phenanthren-3-yl]-1H-pyrrolo[2,3-b]pyridin-5-yl}-methyl-amine], the IC50 lay within 0.01 to 0.1 µM.
For `C[C@@H]1COC[C@H]2COc3c(nc(-c4ccnc5[nH]ccc45)nc3C(C)(C)S(C)(=O)=O)N21` [A13, (6R,8aS)-1-(1-Methanesulfonyl-1-methyl-ethyl)-5-methyl-3-(1H-pyrrolo[2,3-b]pyridin-4-yl)-5,6,8a,9-tetrahydro-8H-7,10-dioxa-2,4,4b-triaza-phenanthrene], the IC50 lay within 0.01 to 0.1 µM.
The value for `C[C@@H]1COC[C@H]2COc3c(nc(-c4c(N)cnc5[nH]ccc45)nc3C(C)(C)S(C)(=O)=O)N21` [A20, 4-[(4bR,8S)-1-(1-Methanesulfonyl-1-methyl-ethyl)-5-methyl-5,6,8a,9-tetrahydro-8H-7,10-dioxa-2,4,4b-triaza-phenanthren-3-yl]-1H-pyrrolo[2,3-b]pyridin-5-ylamine] was 0.01 to 0.1 µM.
